Measurements as given in the NIST ThermoML archive (doi:10.1016/j.jct.2016.03.034).
± gives the expanded uncertainty stated by the source.

Test: xn = mol fraction of the nth substance listed
Details: 100 kPa, Liquid; for viscosity: Capillary tube (Ostwald / Ubbelohde) method; for mass density: Vibrating tube method

O=C1CCCO1 [γ-butyrolactone] + CCCCCC[n+]1ccn(C)c1.O=S(=O)([N-]S(=O)(=O)C(F)(F)F)C(F)(F)F
Details | mass density [kg/m3] | viscosity [mPa·s]
293.15 K, x2 = 0 | 1129.49 ± 9 | 1.86 ± 0.08
293.15 K, x2 = 0.0507 | 1176 ± 9.5 | 2.63 ± 0.11
293.15 K, x2 = 0.0999 | 1209.89 ± 9.7 | 3.68 ± 0.15
293.15 K, x2 = 0.1544 | 1238.99 ± 9.9 | 5.32 ± 0.22
293.15 K, x2 = 0.1999 | 1258.54 ± 10 | 6.49 ± 0.27
293.15 K, x2 = 0.3004 | 1291.11 ± 10 | 10.57 ± 0.44
293.15 K, x2 = 0.404 | 1314.91 ± 11 | –
293.15 K, x2 = 0.5044 | 1332.2 ± 11 | 23.96 ± 0.98
293.15 K, x2 = 0.596 | 1344.4 ± 11 | –
293.15 K, x2 = 0.7027 | 1355.85 ± 11 | 44.32 ± 1.8
293.15 K, x2 = 0.8182 | 1365.51 ± 11 | –
293.15 K, x2 = 0.8924 | 1370.62 ± 11 | 70.24 ± 2.9
298.15 K, x2 = 0 | 1124.59 ± 9 | 1.71 ± 0.07
298.15 K, x2 = 0.0507 | 1171.09 ± 9.4 | 2.43 ± 0.1
298.15 K, x2 = 0.0999 | 1204.99 ± 9.7 | 3.32 ± 0.14
298.15 K, x2 = 0.1544 | 1234.06 ± 9.9 | 4.67 ± 0.19
298.15 K, x2 = 0.1999 | 1253.61 ± 10 | 5.73 ± 0.24
298.15 K, x2 = 0.3004 | 1286.27 ± 10 | 9.16 ± 0.38
298.15 K, x2 = 0.404 | 1310.08 ± 10 | –
298.15 K, x2 = 0.5044 | 1327.28 ± 11 | 19.96 ± 0.81
298.15 K, x2 = 0.596 | 1339.47 ± 11 | –
298.15 K, x2 = 0.7027 | 1350.79 ± 11 | 35.8 ± 1.5
298.15 K, x2 = 0.8182 | 1360.52 ± 11 | –
298.15 K, x2 = 0.8924 | 1365.62 ± 11 | 55.4 ± 2.2
303.15 K, x2 = 0 | 1119.68 ± 9 | 1.58 ± 0.06
303.15 K, x2 = 0.0507 | 1166.32 ± 9.4 | 2.18 ± 0.09
303.15 K, x2 = 0.0999 | 1200.4 ± 9.7 | 3 ± 0.13
303.15 K, x2 = 0.1544 | 1229.53 ± 9.9 | 4.08 ± 0.17
303.15 K, x2 = 0.1999 | 1249.21 ± 10 | 5.07 ± 0.21
303.15 K, x2 = 0.3004 | 1281.91 ± 10 | 7.91 ± 0.33
303.15 K, x2 = 0.404 | 1305.79 ± 10 | –
303.15 K, x2 = 0.5044 | 1323.05 ± 11 | 16.88 ± 0.69
303.15 K, x2 = 0.596 | 1335.25 ± 11 | –
303.15 K, x2 = 0.7027 | 1346.64 ± 11 | 29.15 ± 1.2
303.15 K, x2 = 0.8182 | 1356.39 ± 11 | –
303.15 K, x2 = 0.8924 | 1361.5 ± 11 | 44.29 ± 1.8
308.15 K, x2 = 0 | 1114.78 ± 8.9 | 1.47 ± 0.06
308.15 K, x2 = 0.0507 | 1161.53 ± 9.4 | 1.97 ± 0.08
308.15 K, x2 = 0.0999 | 1195.65 ± 9.6 | 2.74 ± 0.11
308.15 K, x2 = 0.1544 | 1224.8 ± 9.8 | 3.69 ± 0.15
308.15 K, x2 = 0.1999 | 1244.56 ± 10 | 4.55 ± 0.19
308.15 K, x2 = 0.3004 | 1277.26 ± 10 | 7 ± 0.29
308.15 K, x2 = 0.404 | 1301.16 ± 10 | –
308.15 K, x2 = 0.5044 | 1318.46 ± 11 | 14.47 ± 0.59
308.15 K, x2 = 0.596 | 1330.67 ± 11 | –
308.15 K, x2 = 0.7027 | 1342.09 ± 11 | 25.57 ± 1
308.15 K, x2 = 0.8182 | 1351.83 ± 11 | –
308.15 K, x2 = 0.8924 | 1356.94 ± 11 | 36.71 ± 1.5
313.15 K, x2 = 0 | 1109.87 ± 8.9 | 1.37 ± 0.06
313.15 K, x2 = 0.0507 | 1156.54 ± 9.3 | 1.84 ± 0.08
313.15 K, x2 = 0.0999 | 1190.58 ± 9.6 | 2.52 ± 0.1
313.15 K, x2 = 0.1544 | 1219.69 ± 9.8 | 3.34 ± 0.14
313.15 K, x2 = 0.1999 | 1239.41 ± 9.9 | 4.11 ± 0.17
313.15 K, x2 = 0.3004 | 1272 ± 10 | 6.23 ± 0.26
313.15 K, x2 = 0.404 | 1295.78 ± 10 | –
313.15 K, x2 = 0.5044 | 1313.05 ± 11 | 12.29 ± 0.5
313.15 K, x2 = 0.596 | 1325.23 ± 11 | –
313.15 K, x2 = 0.7027 | 1336.62 ± 11 | 20.49 ± 0.83
313.15 K, x2 = 0.8182 | 1346.3 ± 11 | –
313.15 K, x2 = 0.8924 | 1351.37 ± 11 | 30.2 ± 1.2
318.15 K, x2 = 0 | 1104.96 ± 8.8 | 1.28 ± 0.05
318.15 K, x2 = 0.0507 | 1151.65 ± 9.3 | 1.7 ± 0.07
318.15 K, x2 = 0.0999 | 1185.71 ± 9.5 | 2.31 ± 0.1
318.15 K, x2 = 0.1544 | 1214.89 ± 9.8 | 3.03 ± 0.12
318.15 K, x2 = 0.1999 | 1234.59 ± 9.9 | 3.7 ± 0.15
318.15 K, x2 = 0.3004 | 1267.16 ± 10 | 5.72 ± 0.23
318.15 K, x2 = 0.404 | 1290.94 ± 10 | –
318.15 K, x2 = 0.5044 | 1308.19 ± 10 | 10.74 ± 0.44
318.15 K, x2 = 0.596 | 1320.36 ± 11 | –
318.15 K, x2 = 0.7027 | 1331.75 ± 11 | 17.5 ± 0.71
318.15 K, x2 = 0.8182 | 1341.42 ± 11 | –
318.15 K, x2 = 0.8924 | 1346.5 ± 11 | 25.41 ± 1
323.15 K, x2 = 0 | 1100.05 ± 8.8 | 1.2 ± 0.05
323.15 K, x2 = 0.0507 | 1147.03 ± 9.3 | 1.58 ± 0.07
323.15 K, x2 = 0.0999 | 1181.36 ± 9.5 | 2.14 ± 0.09
323.15 K, x2 = 0.1544 | 1210.78 ± 9.7 | 2.69 ± 0.11
323.15 K, x2 = 0.1999 | 1230.51 ± 9.9 | 3.38 ± 0.14
323.15 K, x2 = 0.3004 | 1263.32 ± 10 | 5.21 ± 0.21
323.15 K, x2 = 0.404 | 1287.31 ± 10 | –
323.15 K, x2 = 0.5044 | 1304.67 ± 10 | 9.36 ± 0.38
323.15 K, x2 = 0.596 | 1316.95 ± 11 | –
323.15 K, x2 = 0.7027 | 1328.43 ± 11 | 15 ± 0.61
323.15 K, x2 = 0.8182 | 1338.19 ± 11 | –
323.15 K, x2 = 0.8924 | 1343.3 ± 11 | 21.39 ± 0.87
